In series [1] the test system is S. aureus 29213, MRSA and M. tuberculosis H37Rv. In words: Comparison of potentiating activity with piperine. Format: cell-based. The settings on record: Ciprofloxacin, Amikacin, Rifampicin and Mupirocin (Table-5 A & B). As to the method: Minimum Inhibitory Concentration (MIC) of antibacterial agents (Ciprofloxacin, Amikacin, Rifampicin and Mupirocin) was determined alone and in combination with compound of formula (1a). MIC of the abovementioned antibacterial agents was also determined in combination with piperine.

Series [2] concerns MRSA. In words: Wound infection treatment in mice. The format is in vivo. The settings on record: for Growth / Mean CFU: MRSA wound infection in mice. How it is done: The study was conducted to see the in vivo response of Mupirocin in combination with the above-mentioned potentiator. Wound area of 1.5 cm×1.5 cm was created on the skin of mice by abrasion with sand paper. An inoculum of 10^8 CFU/ml of MRSA was applied on to this wound area. The wound was treated for five days (two applications a day) with mupirocin cream and the other group with a formulation of mupirocin at ¼^th concentration and compound of formula 1a. […] (Table-6).

The nature of series [3]: Acute toxicity study. The settings on record: mice. The format is in vivo.
From the text: Parameters monitored were: Food/water consumption, body weight, organ weight, haematological and clinical chemistry profile.
For series [4], the system named is S. aureus ATCC 29213 (wild strain). Put plainly: Ethidium bromide accumulation and efflux. The settings on record: compound 25 μg/ml, ethidium bromide 2 μg/ml.
Method: Briefly, for measurement of the level of accumulation, both the bacterial strains were grown overnight on Trypticase Soya Agar. Bacterial suspensions were prepared at an optical density at 550 nm of 0.2 in uptake buffer (NaCl, 110 mM; KCl, 7 mM; NH4Cl, 50 mM; Na2HPO4, 0.4 mM; Tris base, 52 mM; glucose, 0.2% adjusted to pH 7.5 with HCl) and were then exposed to ethidium bromide at a concentration of 2 μg/ml. The increase in fluorescence as ethidium bromide entered the cells was recorded fluorometrically with a Perkin-Elmer model LS50 spectrofluorimeter (excitation λ, 530 nm; emission λ, 600 nm) at 30° C.
For determining ethidium bromide loss, bacterial suspensions were prepared as described above and were exposed to ethidium bromide (2 μg/ml) in the presence of compound of formula 1a (25 μg/ml) for 30 min at 37° C. The cells were then pelleted by centrifugation and were resuspended in fresh uptake buffer. The loss of ethidium bromide from the cells was measured as a decrease in fluorescence (FIG. IB)
The test system of series [5] is mice and guinea pig models infected with microorganisms. Put plainly: In vivo infection models, combinations with anti-infective agents. The source says: These combinations were also efficacious when tested in in vivo using mice and guinea pig models infected with microorganisms (table-7).
Series [6] relates to Staphylococcus aureus, MRSA and Staphylococcus hemolyticus. Put plainly: Decrease in MIC of ciprofloxacin in combination. The format is cell-based. The settings on record: bacterial species (Table-2).
The test system of series [7] is S aureus ATCC 29213. In words: MIC by checkerboard method. Format: cell-based, Staphylococcus aureus. The settings on record: Staphylococcus aureus.
The subject of series [8] is MRSA 15187. Put plainly: MIC by checkerboard method. Format: cell-based. The settings on record: Staphylococcus aureus; Mupirocin alone; S aureus MRSA 15187.
Series [9] deals with MRSA 450. In words: MIC by checkerboard method. Format: cell-based. The settings on record: Staphylococcus aureus, S aureus MRSA 450.
The test system of series [10] is MRSA 33. Put plainly: MIC by checkerboard method. The settings on record: Staphylococcus aureus, S aureus MRSA 33. The format is cell-based.
For series [11], the system named is MRSA. Put plainly: MIC by checkerboard method, comparison with piperine. The format is cell-based, Staphylococcus aureus. The settings on record: Staphylococcus aureus, Tables 5A/5B.
Series [12] relates to S epidermidis ATCC 12228. Put plainly: MIC by checkerboard method. Format: cell-based.
For series [13], the system named is B cereus RRL 101. In words: MIC by checkerboard method. Format: cell-based.
The subject of series [14] is Gm −ve bacteria. Put plainly: microbe, parasite or virus in culture. The format is cell-based, Gram negative. The settings on record: read-out: MIC Drug alone.
Series [15] concerns M. tb. In words: MIC of anti infective drugs alone and with potentiators. Format: cell-based, Mycobacterium tuberculosis. The settings on record: Mycobacterium tuberculosis, drug alone.
Series [16] has as its system Staphylococcus aureus ATCC 29213. Put plainly: Systemic infection model of mice. Format: in vivo, Swiss albino mice. The settings on record: ATCC29213, iv, read-out: ED50 for ciprofloxacin.
Method: The study was conducted to see the in vivo response of ciprofloxacin in combination with the above-mentioned potentiator. The Swiss albino mice were infected intravenously with Staphylococcus aureus ATCC 29213 (10^7 CFU/mouse). The infected mice were divided in groups and each group consisted of 6 mice. The treatment consisted of one dose i.e. 5 or 10 or 20 mg/kg immediately after the infection followed by the next dose after a gap of 6 hrs. The result was recorded as number of survivals each day.
Setting [17] is: 0.25% Mupirocin + 0.25% compound of formula 1.
The mark [18] stands for this setting: 0.5% Mupirocin + 0.25% compound of formula 1.
Where [19] appears, read: 2% Mupirocin, five days, two applications a day.
The mark [20] stands for this setting: Mupirocin alone, read-out: MIC of Mupirocin.
[21] abbreviates: Amikacin alone, read-out: MIC of Amikacin.
Where [22] appears, read: Ciprofloxacin alone, read-out: MIC Ciprofloxacin.

Each structure is given as a SMILES string. ≈ marks a conversion by molar mass, not a printed value. Where two headings read alike, the source gives them in different places. Some results are limits rather than exact numbers.

For `CCC(/C=C/C(=O)N1CCCCC1)=C\c1ccc2c(c1)OCO2` [compound of formula 1a, 4-ethyl-5-(3,4-methylenedioxyphenyl)-2E,4E-pentadienoic acid piperidine amide], the “potency relative to piperine in reducing the MICs of the antibacterial agents” value in series [1] is “four times more potent than piperine”. Moreover, the Growth in [2] (setting [17]) is listed as 4/5; in [2] (setting [18]) it was 1/5; in series [2] (0.5% Mupirocin + 0.5% compound of formula 1), 0/5. Moreover, the “Mean CFU” value in series [2] (setting [17]) is on record as 2.5 × 10^4 CFU; in series [2] (setting [18]), 4.0 × 10^3 CFU. In series [2] (combination of mupirocin with compound of formula-1a vs mupirocin cream, MRSA-infected skin wound of mice, five days), the wound healing entry is “better wound healing”. In addition, in series [3], the “LD50 (oral)” value is more than 3.0 gm/kg. For the same compound, the “accumulation of ethidium bromide” value in series [4] (S. aureus wild type (FIG. IA)) is “Increased Accumulation”. For the same compound, the “efflux of ethidium bromide” value in series [4] (S. aureus wild type (FIG. IB)) is “Decreased Efflux”. The “efficacy of combinations with anti-infective agents in vivo” value in series [5] is listed as “efficacious”. For the same compound, the “reductions in MIC of ciprofloxacin in combination with the potentiator” value in series [6] is listed as “Two to more than eight fold”.

In the case of `C/C(=C\C(=O)OCCCCCCCCC(=O)O)C[C@@H]1OC[C@H](C[C@@H]2O[C@H]2[C@@H](C)[C@H](C)O)[C@@H](O)[C@H]1O` [Mupirocin, reference compound], the MIC in series [7] (ATCC29213, Mupirocin alone, read-out: MIC of Mupirocin) was found to be 0.12 µg/mL; in series [7] (ATCC29213, Tables 5A/5B, Mupirocin alone, read-out: MIC Mupirocin), 0.12 µg/mL; in series [8], 0.25 µg/mL; in series [9] (setting [20]), 0.25 µg/mL; in [10] (setting [20]), 0.12 µg/mL; in [11] (Mupirocin alone, read-out: MIC Mupirocin) it was 0.12 µg/mL. In addition, in [2] (setting [19]), the Growth was 3/5. In [2] (setting [19]), the “Mean CFU” value is reported as 1.08 × 10^4 CFU.

In the case of `NCC[C@H](O)C(=O)N[C@@H]1C[C@H](N)[C@@H](O[C@H]2O[C@H](CN)[C@@H](O)[C@H](O)[C@H]2O)[C@H](O)[C@H]1O[C@H]1O[C@H](CO)[C@@H](O)[C@H](N)[C@H]1O` [Amikacin, reference compound], the MIC stood at 2 µg/mL in series [7] (ATCC29213, Amikacin alone, read-out: MIC of Amikacin); 2 µg/mL in series [7] (ATCC29213, Tables 5A/5B, Amikacin alone, read-out: MIC Amikacin); 16 µg/mL in series [9] (setting [21]); 1 µg/mL in series [12] (setting [21]); 8 µg/mL in [10] (setting [21]); 1 µg/mL in [13] (setting [21]). Moreover, in series [11] (Amikacin alone, read-out: MIC Amikacin), the MIC was 4 µg/mL.

The ED50 is the dose at which the effect has come halfway, by size or by number of responders. For `O=C(O)c1cn(C2CC2)c2cc(N3CCNCC3)c(F)cc2c1=O` [Ciprofloxacin, reference compound], the MIC in [7] (ATCC29213, Ciprofloxacin alone, read-out: MIC Ciprofloxacin) is 0.25 µg/mL; in series [7] (ATCC29213, Tables 5A/5B, Ciprofloxacin alone, read-out: MIC Ciprofloxacin), 0.25 µg/mL; in series [9] (setting [22]), 32 µg/mL; in series [12] (setting [22]), 0.12 µg/mL; in series [14], 0.03 to 0.5 µg/mL (≈ 0.0905 to 1.51 µM); in [10] (setting [22]), 32 µg/mL. For the same compound, the MIC was 0.5 to 1 µg/mL in [15], 0.12 µg/mL in series [13] (setting [22]) and 32 µg/mL in series [11] (setting [22]). Further, in series [16], the ED50 came to 9.2 mg/kg.
